These results are taken from patent publication US10512631B2, “Chalcone compounds” (Beth Israel Deaconess Medical Center, Inc., priority 2015, dated 2019).

As a reminder, the IC50 is the concentration at which inhibition is half-maximal.

Holding throughout (assay type): cell-based
The subject of assay [1] is A549. Briefly: Cytoxicity / crystal violet staining, A549. The conditions noted are these: average of triplicates, % of apoptotic cells vs DMSO controls, N.A. = not active at 10 μM. As to the method:
(§1) PC3 (provided by Dr. Steven Balk's laboratory in Department of Medicine at Beth Israel Deaconess Medical Center), PANC02 and CRL2119 (provided by Dr. Pankaja Seth's laboratory in Department of Medicine at Beth Israel Deaconess Medical Center), A549 (ATCC) cell lines were cultured according to manufacturer's protocols. Briefly, PC3 were cultured in RPMI medium supplemented with 10% FBS (Atlanta). PANC-2, A549 and CRL2119 were cultured in DMEM High medium supplemented with 10% FBS (Atlanta). Human bronchial epithelial cells (BEC) were cultured in Airway Epithelial Cell Basal Medium with the Bronchial Epithelial cell growth kit (ATCC) according to manufacturer's protocol and used at passages 3-5.
(§2) Cells were seeded at 5×10^3 concentration in 96 well plates and treated with test compounds or DMSO (0.001-10 μM) for 72 hours. Culture medium was removed and cells were stained with crystal violet solution (Sigma-Aldrich) for 15 minutes while shaking at room temperature. Crystal violet was then removed and cells were repeatedly washed in water. Attached cells stained with crystal violet were dried and then resuspended in 10% acetic acid. Absorbance was measured at 562 nm. The intensity of staining corresponded directly to the number of live cells.

In assay [2] the test system is PC3. Put plainly: Cytoxicity / crystal violet staining, PC3. The settings on record: average of triplicates, % of apoptotic cells vs DMSO controls, N.A. = not active at 10 μM. The method, then:
as §1, §2

For another assay, the system named is A549 cells. Put plainly: Invasion chambers (Transwell, Matrigel). The conditions noted are these: serum chemoattractants, compared to untreated cells. The method, then:
The invasion of A549 cells was measured using Transwell chambers (Chemicon, Millipore, Calif.) according to the manufacturer's protocol. Briefly, A549 cells were treated with test compounds at 1 μM in 500 μl of DMEM medium without FBS for 24 hours. Medium in the upper chamber was serum-free while medium in the lower chamber contained 10% FBS as a source of chemoattractants. Cells that passed through the Matrigel-coated membrane were stained and photographed after 24 hours of incubation. Absorbance was measured at 562 nm by ELISA reader after dissolving of stained cells in 10% acetic acid.

Assay [3] has as its system A549. Briefly: Cytoxicity / crystal violet staining, A549. The conditions noted are these: Homo sapiens, 0.01-5 μM for 72 hours, n=4.
For assay [4], the system named is PC3. Briefly: Cytoxicity / crystal violet staining, PC3. The settings on record: Homo sapiens, PC-3; 0.01-5 μM for 72 hours, n=4.
Another assay has as its system PC3 cells. Briefly: Immunostaining of α-tubulin and β-actin in PC3 cells. The conditions noted are these: Compound 6 1 μM or docetaxel 20 nM, 24 hours. The method, then:
Immunofluorescence and immunostaining on cell lines and tumor samples were performed as described in Wegiel et al, Cancer research 2013, 73(23), 7009-21. Anti-mouse STMN1, anti-P (Ser10)-Histone H3, and α-tubulin antibody were obtained from Cell Signaling. β-actin antibody was obtained from Sigma-Aldrich. […] After immunofluorescence staining, the number of P-Histone H3 was quantified per field of view at 40× magnification using Zeiss Axiovert Microscope.

Consider `O=C1/C(=C/c2ccc3[nH]ccc3c2)CCc2ccccc21` [Compound 1], for which the “Cytoxicity (% cell killing at 10 μM) A549” value in the assay on A549 [1] amounted to 47%. For the same compound, in the assay with PC3 [2], the “Cytoxicity (% cell killing at 10 μM) PC3” value was 55%.
In the same order, the values of `Cn1ccc2cc(/C=C3\CCc4ccccc4C3=O)ccc21` [Compound 2] are 56% and 52%.
The matching figures for `CCn1ccc2cc(/C=C3\CCc4ccccc4C3=O)ccc21` [Compound 3]: 52% and 58%.
The matching figures for `Cn1ccc2ccc(/C=C3\CCc4ccccc4C3=O)cc21` [Compound 4]: 53% and 61%.
With `O=C1/C(=C/c2ccc3[nH]ccc3c2)CCc2ccc(F)cc21` [Compound 7, (2E)-7-fluoro-2-(1H-indol-5-ylmethylidene)-1,2,3,4-tetrahydronaphthalen-1-one], the “Cytoxicity (% cell killing at 10 μM) A549” value with A549 [1] amounted to 43%. For the same compound, the “Cytoxicity (% cell killing at 10 μM) PC3” value in the assay with PC3 [2] is 45%. Moreover, the “invasion / migration through matrigel coated chambers” value with A549 cells is “accelerated migration”. In addition, the IC50 came to 271 nM in the assay with A549 [3] and 449 nM in the assay on PC3 [4].
In the same order, the values of `CCn1ccc2cc(/C=C3\CCc4ccc(F)cc4C3=O)ccc21` [Compound 8, (2E)-2-[(1-ethyl-1H-indol-5-yl)methylidene]-7-fluoro-1,2,3,4-tetrahydronaphthalen-1-one] are 38%, 33%, “strongly inhibited invasion”, 113 nM and 106 nM.
Turning to `CC(=O)n1ccc2cc(/C=C3\CCc4ccc(F)cc4C3=O)ccc21` [Compound 9], in the assay on A549 [1], the “Cytoxicity (% cell killing at 10 μM) A549” value stood at 28%. Moreover, in the assay on PC3 [2], the “Cytoxicity (% cell killing at 10 μM) PC3” value is reported as 24%.
With `CCn1ccc2cc(/C=C3\CCc4ccc(OC)cc4C3=O)ccc21` [Compound 12], the “Cytoxicity (% cell killing at 10 μM) A549” value with A549 [1] came out at 20%. Also, in the assay on PC3 [2], the “Cytoxicity (% cell killing at 10 μM) PC3” value is given as 49%.
Take `COc1ccc2c(c1)C(=O)/C(=C/c1ccc3[nH]ccc3c1)CC2` [Compound 13]: the “Cytoxicity (% cell killing at 10 μM) A549” value with A549 [1] was 5%. Also, the “Cytoxicity (% cell killing at 10 μM) PC3” value in the assay with PC3 [2] came out at 55%.
Consider `COc1ccc2c(c1)C(=O)/C(=C/c1ccc3c(ccn3C)c1)CC2` [Compound 14], for which the “Cytoxicity (% cell killing at 10 μM) A549” value with A549 [1] is 21%. In addition, the “Cytoxicity (% cell killing at 10 μM) PC3” value in the assay on PC3 [2] was 18%.
The matching figures for `COc1ccc2c(c1)C(=O)/C(=C/c1ccc3ccn(C)c3c1)CC2` [Compound 15]: 24% and 42%.
Consider `COc1cc2c(cc1OC)C(=O)/C(=C/c1ccc3c(ccn3C)c1)CC2` [Compound 16], for which, in the assay on PC3 [2], the “Cytoxicity (% cell killing at 10 μM) PC3” value is recorded as 31%.
As to `CCn1ccc2cc(/C=C3\CCc4cc(OC)c(OC)cc4C3=O)ccc21` [Compound 17], the “Cytoxicity (% cell killing at 10 μM) A549” value in the assay with A549 [1] turned out to be 19%. For the same compound, in the assay with PC3 [2], the “Cytoxicity (% cell killing at 10 μM) PC3” value turned out to be 45%.
On to `COc1cc2c(cc1OC)C(=O)/C(=C/c1ccc3ccn(C)c3c1)CC2` [Compound 18], for which the “Cytoxicity (% cell killing at 10 μM) A549” value in the assay on A549 [1] amounted to 41%. For the same compound, in the assay with PC3 [2], the “Cytoxicity (% cell killing at 10 μM) PC3” value stood at 55%.
`O=C1/C(=C/c2ccc3[nH]ccc3c2)CCc2ccc(Br)cc21` [Compound 19]: in the assay with A549 [1], the “Cytoxicity (% cell killing at 10 μM) A549” value is 16%. For the same compound, the “Cytoxicity (% cell killing at 10 μM) PC3” value with PC3 [2] is reported as 42%.
For `Cn1ccc2cc(/C=C3\CCc4ccc(Br)cc4C3=O)ccc21` [Compound 20], the “Cytoxicity (% cell killing at 10 μM) A549” value with A549 [1] worked out at 21%. Besides, the “Cytoxicity (% cell killing at 10 μM) PC3” value in the assay with PC3 [2] amounted to 47%.
The matching figures for `Cn1ccc2ccc(/C=C3\CCc4ccc(Br)cc4C3=O)cc21` [Compound 21]: 26% and 39%.
Consider `CC(=O)O[C@@]12CO[C@@H]1C[C@H](O)[C@@]1(C)C(=O)[C@H](O)C3=C(C)[C@@H](OC(=O)[C@H](O)[C@@H](NC(=O)OC(C)(C)C)c4ccccc4)C[C@@](O)([C@@H](OC(=O)c4ccccc4)[C@H]21)C3(C)C` [docetaxel, reference compound], for which the “microtubule stability (α-tubulin immunostaining)” value in the assay on PC3 cells is listed as “stabilization of microtubules”.
